Data published in patent publication US9175011B2, “Morpholino substituted urea or carbamate derivatives as MTOR inhibitors” (CELLZOME LIMITED, priority 2011, dated 2015).

Experiments:
[1] = target: T1, DNA-dependent protein kinase (DNA-PK) (Homo sapiens, UniProt P78527); experiment: kinobeads assay, DNA-PK; assay type: binding; settings: Jurkat cell lysate, read-out: Inhibition values (IC50) DNA-PK
T1 construct: Jurkat cells were homogenized in a Potter S homogenizer in lysis buffer; endogenous in cells; host or cells: Jurkat, clone E6-1 (ATCC TIB-152) lysate
Protocol: (§1) The compounds of the present invention as described were tested in the mTOR kinobeads assay as described below. Briefly, test compounds (at various concentrations) and the affinity matrix (1:1 mixture of beads with immobilized phenylthiazole ligand 1 and beads with immobilized phenylmorpholin-chromen ligand; WO 2009/098021) were added to cell lysate aliquots and allowed to bind to the proteins in the lysate sample. After the incubation time the beads with captured proteins were separated from the lysate. Bound proteins were then eluted and the presence of mTOR, PI3K alpha (PI3Kα), PI3K beta (PI3Kb), PI3K gamma (PI3Kg), PI3K delta (PI3Kd) and DNA-dependent protein kinase (DNA-PK) was detected and quantified using a specific antibody in a dot blot procedure and the Odyssey infrared detection system. Dose response curves for individual kinases were generated and IC50 values calculated. Kinobeads assays for PI3 kinases (WO-A 2008/015013) and for kinase selectivity profiling (WO 2009/098021) have been previously described.
(§2) The affinity matrix (beads with immobilized phenylmorpholin-chromen ligand) was washed three times with 15 ml of 1×DP buffer containing 0.2% NP40 (IGEPAL® CA-630, Sigma, #13021) and then resuspended in 5.5 ml of 1×DP buffer containing 0.2% NP40 (10% beads slurry).
(§3) 5×DP buffer: 250 mM Tris-HCl pH 7.4, 25% Glycerol, 7.5 mM MgCl2, 750 mM NaCl, 5 mM Na3VO4, filter the 5×-lysis buffer through 0.22 μm filter and store in aliquots at −80° C. The 5×DP buffer is diluted to 1×DP buffer containing 1 mM DTT and 25 mM NaF.
(§4) Stock solutions of test compounds were prepared in DMSO. In a 96 well plate 30 μl solution of diluted test compounds at 5 mM in DMSO were prepared. Starting with this solution a 1:3 dilution series (9 steps) was prepared. For control experiments (no test compound) a buffer containing 2% DMSO was used. Compound PI-103 served as a positive control (Calbiochem catalogue number 528100).
(§5) Jurkat cells (ATCC catalogue number TIB-152 Jurkat, clone E6-1) were grown in 1 liter Spinner flasks (Integra Biosciences, #182101) in suspension in RPMI 1640 medium (Invitrogen, #21875-034) supplemented with 10% Fetal Bovine Serum (Invitrogen) at a density between 0.15×10^6 and 1.2×10^6 cells/ml. Cells were harvested by centrifugation, washed once with 1×PBS buffer (Invitrogen, #14190-094) and cell pellets were frozen in liquid nitrogen and subsequently stored at −80° C.
(§6) Jurkat cells were homogenized in a Potter S homogenizer in lysis buffer: 50 mM Tris-HCl, 0.8% NP40, 5% glycerol, 150 mM NaCl, 1.5 mM MgCl2, 25 mM NaF, 1 mM sodium vanadate, 1 mM DTT, pH 7.5. One complete EDTA-free tablet (protease inhibitor cocktail, Roche Diagnostics, 1873580) per 25 ml buffer was added. The material was dounced 10 times using a mechanized POTTER S, transferred to 50 ml falcon tubes, incubated for 30 minutes on ice and spun down for 10 min at 20,000 g at 4° C. (10,000 rpm in Sorvall SLA600, precooled). The supernatant was transferred to an ultracentrifuge (UZ)-polycarbonate tube (Beckmann, 355654) and spun for 1 hour at 100.000 g at 4° C. (33.500 rpm in Ti50.2, precooled). The supernatant was transferred again to a fresh 50 ml falcon tube, the protein concentration was determined by a Bradford assay (BioRad) and samples containing 50 mg of protein per aliquot were prepared. The samples were immediately used for experiments or frozen in liquid nitrogen and stored frozen at −80° C.
(§7) Jurkat cell lysate (approximately 50 mg protein per plate) was thawed in a water bath at room temperature and then kept on ice. To the thawed cell lysate 1×DP 0.8% NP40 buffer containing protease inhibitors (1 tablet for 25 ml buffer; EDTA-free protease inhibitor cocktail; Roche Diagnostics 1873580) was added in order to reach a final protein concentration of 5 mg/ml total protein. The diluted cell lysate was stored on ice. […]

mTOR = target: T2, mTOR (Homo sapiens, UniProt P42345); experiment: mTOR kinobeads assay (Jurkat cell lysate, dot blot detection); assay type: binding; settings: read-out: Inhibition values (IC50) mTor
T2 construct: Jurkat cells were homogenized in a Potter S homogenizer in lysis buffer; endogenous in cells; host or cells: Jurkat, clone E6-1 (ATCC TIB-152) lysate
Protocol: as §1, §2, §3, §4, §5, §6, §7

[2] = tested on: S6RP serine-240/244 phosphorylation; experiment: In vitro phospho-S6 cellular assay (HEK293T/17); assay type: cell-based; settings: Homo sapiens; HEK293T/17 cells, 2 hours, pS6RP Ser240/244; read-out: Inhibition values (IC50) pS6
Source text: Activation of mTOR signaling results in phosphorylation of several downstream targets. In cells, mTOR exists in two different protein complexes. The mTOR Complex-1 (mTORC1) phosphorylates and activates S6 Kinase 1 (S6K1) and S6 Kinase 2 (S6K2) (also known as p70S6K) which then phosphorylate S6 Ribosomal Protein (S6RP) (also known as RPS6)3. S6RP is phosphorylated on serine 235, senile 236, serine 240 and serine 244 by both pS6K1 and pS6K2. The mTOR Complex-2 (mTORC2) phosphorylates AKT on serine 473 which activates the AKT signaling pathway.
The assay measures a test compound's inhibition of S6RP serine-240/244 phosphorylation and inhibition of Akt serine-473 phosphorylation in human embryonic kidney derived HEK293T/17 cells (ATCC CRL-11268).
The HEK293T/17 cell line is maintained in DMEM media (Invitrogen catalogue number 41965-039) supplemented with 10% FCS at 37° C. in a 5% CO2 humidified incubator. Cells are seeded in 96-well plates at 40,000 cells/well (pS6RP S240/244 assay) or 80,000 cells/well (pAkt 5473 assay) in 90 μl growth media (DMEM, 2% FCS). Plates are incubated for 1 hour in a humidified incubator to allow the cells to adhere. Cells are treated with 8 concentrations of test compounds or DMSO alone for controls (final DMSO concentration 0.1%) and incubated at 37° C. for 2 hours. Then 20 μl of 5× concentrated lysis buffer (750 mM NaCl, 100 mM Tris pH7.4, 5 mM ADTA, 5 mM EGTA, 5% Triton X-100) is added, plates are sealed and incubated for 15 minutes at 4° C. with gentle shaking After cell lysis, 25 μl cell lysate is transferred to a MesoScale plate coated with an antibody to pS6RP Ser240/244 (MesoScale Discovery K150DGD-3) or an antibody to pAkt Ser 473 (MesoScale Discovery K151DGD-3). Plates have been blocked before by incubation with 150 μl MesoScale Discovery Blocking Solution-A for 1 hour at room temperature followed by washing with 150 μl 1×Tris wash buffer per well. After the transfer of the cell lysate to the MSD plate, the pS6RP (or pAkt) protein is captured on the coated antibody by incubation at room temperature for 1 hour with gentle shaking. After the capture step the plate is washed three times with 150 μl of 1× Tris wash buffer per well. Then 25 μl detection antibody conjugated with a Sulfo-Tag is added and incubated for 1 hour at room temperature with gentle shaking. Subsequently the antibody solution is removed and the plate is washed 3 times with 150 μl 1×Tris wash buffer per well and 150 μl Read buffer is added. The plates are analysed on a MSD 2400 Plate Reader (MesoScale Discovery). Data analysis is performed using nonlinear regression for a sigmoidal dose-response with a variable slope.

PI3K alpha (PI3Kα) = target: T3, PI3K alpha (PI3Kα) (Homo sapiens, UniProt P42336); experiment: kinobeads assay, PI3K alpha; assay type: binding; settings: Jurkat cell lysate, read-out: Inhibition values (IC50) PI3Ka
T3 construct: Jurkat cells were homogenized in a Potter S homogenizer in lysis buffer; endogenous in cells; host or cells: Jurkat, clone E6-1 (ATCC TIB-152) lysate
T3 sequence (P42336 whole entry): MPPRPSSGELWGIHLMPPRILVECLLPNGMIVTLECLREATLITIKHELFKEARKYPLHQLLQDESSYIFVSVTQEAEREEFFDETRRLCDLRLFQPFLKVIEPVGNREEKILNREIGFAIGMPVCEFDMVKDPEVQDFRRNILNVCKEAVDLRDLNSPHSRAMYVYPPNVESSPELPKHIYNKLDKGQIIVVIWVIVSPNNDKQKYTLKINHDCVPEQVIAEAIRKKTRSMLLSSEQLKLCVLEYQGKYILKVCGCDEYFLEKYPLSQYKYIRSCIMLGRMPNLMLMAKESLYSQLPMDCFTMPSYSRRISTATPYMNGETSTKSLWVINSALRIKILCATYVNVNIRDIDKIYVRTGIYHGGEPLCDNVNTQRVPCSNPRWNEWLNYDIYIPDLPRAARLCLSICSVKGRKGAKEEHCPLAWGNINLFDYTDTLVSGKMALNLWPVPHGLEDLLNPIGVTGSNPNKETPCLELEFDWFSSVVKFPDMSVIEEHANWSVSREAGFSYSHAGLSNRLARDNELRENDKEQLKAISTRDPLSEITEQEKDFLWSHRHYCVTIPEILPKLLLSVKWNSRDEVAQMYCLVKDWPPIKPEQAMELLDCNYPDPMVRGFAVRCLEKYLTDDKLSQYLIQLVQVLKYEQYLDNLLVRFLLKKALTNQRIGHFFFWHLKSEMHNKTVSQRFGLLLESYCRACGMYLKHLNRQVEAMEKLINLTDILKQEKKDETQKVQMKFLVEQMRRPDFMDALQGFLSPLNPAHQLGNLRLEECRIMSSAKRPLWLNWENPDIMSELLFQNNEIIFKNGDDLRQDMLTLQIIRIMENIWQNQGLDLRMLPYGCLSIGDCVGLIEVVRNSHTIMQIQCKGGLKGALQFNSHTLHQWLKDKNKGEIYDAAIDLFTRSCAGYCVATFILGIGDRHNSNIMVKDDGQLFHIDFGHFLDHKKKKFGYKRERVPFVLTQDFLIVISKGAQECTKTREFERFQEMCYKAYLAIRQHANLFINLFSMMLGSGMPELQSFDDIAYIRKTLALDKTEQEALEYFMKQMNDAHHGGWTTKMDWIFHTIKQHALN
T3 sequence (P27986 whole entry partner): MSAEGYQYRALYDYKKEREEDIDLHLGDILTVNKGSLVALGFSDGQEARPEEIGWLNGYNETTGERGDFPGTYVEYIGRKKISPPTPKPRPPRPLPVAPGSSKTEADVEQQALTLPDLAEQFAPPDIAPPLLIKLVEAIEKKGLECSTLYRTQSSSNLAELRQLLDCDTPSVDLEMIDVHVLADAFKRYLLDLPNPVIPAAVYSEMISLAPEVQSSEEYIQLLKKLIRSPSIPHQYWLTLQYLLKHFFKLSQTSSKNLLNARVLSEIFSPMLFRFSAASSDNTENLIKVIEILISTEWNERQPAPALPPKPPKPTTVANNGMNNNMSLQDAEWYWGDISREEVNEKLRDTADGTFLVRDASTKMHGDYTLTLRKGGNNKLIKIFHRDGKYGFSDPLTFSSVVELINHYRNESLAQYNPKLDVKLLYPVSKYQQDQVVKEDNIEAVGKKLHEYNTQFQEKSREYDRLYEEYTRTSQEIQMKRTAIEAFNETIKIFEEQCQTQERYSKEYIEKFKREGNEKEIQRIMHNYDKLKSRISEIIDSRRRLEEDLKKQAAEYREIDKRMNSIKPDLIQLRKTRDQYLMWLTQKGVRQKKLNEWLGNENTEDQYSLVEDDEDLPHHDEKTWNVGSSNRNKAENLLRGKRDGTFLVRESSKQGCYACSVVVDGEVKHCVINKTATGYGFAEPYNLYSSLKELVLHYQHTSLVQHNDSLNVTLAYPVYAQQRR
Protocol: as §1, §2, §3, §4, §5, §6, §7

PI3K gamma (PI3Kg) = target: T4, PI3K gamma (PI3Kg) (Homo sapiens, UniProt P48736); experiment: kinobeads assay, PI3K gamma; assay type: binding; settings: Jurkat cell lysate, read-out: Inhibition values (IC50) PI3Kg
T4 construct: Jurkat cells were homogenized in a Potter S homogenizer in lysis buffer; endogenous in cells; host or cells: Jurkat, clone E6-1 (ATCC TIB-152) lysate
T4 sequence (P48736 whole entry): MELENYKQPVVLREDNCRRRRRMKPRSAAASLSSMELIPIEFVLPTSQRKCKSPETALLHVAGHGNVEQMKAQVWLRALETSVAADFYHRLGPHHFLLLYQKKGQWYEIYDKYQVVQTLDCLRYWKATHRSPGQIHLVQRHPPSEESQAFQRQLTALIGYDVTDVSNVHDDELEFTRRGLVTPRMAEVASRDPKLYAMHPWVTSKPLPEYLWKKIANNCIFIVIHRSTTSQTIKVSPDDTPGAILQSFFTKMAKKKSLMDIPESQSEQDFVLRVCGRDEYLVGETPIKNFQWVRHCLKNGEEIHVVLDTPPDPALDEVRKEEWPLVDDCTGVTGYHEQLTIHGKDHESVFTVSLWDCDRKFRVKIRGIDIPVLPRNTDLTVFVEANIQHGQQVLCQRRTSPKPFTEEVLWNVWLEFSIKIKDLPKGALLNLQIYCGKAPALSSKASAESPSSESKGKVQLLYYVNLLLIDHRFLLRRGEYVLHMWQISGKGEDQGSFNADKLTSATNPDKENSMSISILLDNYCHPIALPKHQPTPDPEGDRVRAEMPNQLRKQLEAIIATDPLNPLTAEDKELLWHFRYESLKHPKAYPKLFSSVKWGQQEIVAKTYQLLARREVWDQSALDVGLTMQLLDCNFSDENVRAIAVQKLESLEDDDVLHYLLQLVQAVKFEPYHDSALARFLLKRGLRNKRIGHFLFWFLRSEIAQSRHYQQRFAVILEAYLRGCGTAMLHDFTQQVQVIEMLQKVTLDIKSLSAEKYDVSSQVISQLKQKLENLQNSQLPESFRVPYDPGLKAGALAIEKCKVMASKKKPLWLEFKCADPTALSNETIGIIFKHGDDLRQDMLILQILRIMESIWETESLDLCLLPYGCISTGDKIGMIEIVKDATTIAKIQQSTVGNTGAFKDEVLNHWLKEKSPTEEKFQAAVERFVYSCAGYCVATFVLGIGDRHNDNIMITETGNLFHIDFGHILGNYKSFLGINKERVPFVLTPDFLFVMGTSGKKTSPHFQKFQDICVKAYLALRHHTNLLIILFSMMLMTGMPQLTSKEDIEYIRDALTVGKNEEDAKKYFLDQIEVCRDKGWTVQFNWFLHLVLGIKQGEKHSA
Protocol: as §1, §2, §3, §4, §5, §6, §7

PI3K beta (PI3Kb) = target: T5, PI3K beta (PI3Kb) (Homo sapiens, UniProt P42338); experiment: kinobeads assay, PI3K beta; assay type: binding; settings: Jurkat cell lysate, read-out: Inhibition values (IC50) PI3Kb
T5 construct: Jurkat cells were homogenized in a Potter S homogenizer in lysis buffer; endogenous in cells; host or cells: Jurkat, clone E6-1 (ATCC TIB-152) lysate
T5 sequence (P42338 whole entry): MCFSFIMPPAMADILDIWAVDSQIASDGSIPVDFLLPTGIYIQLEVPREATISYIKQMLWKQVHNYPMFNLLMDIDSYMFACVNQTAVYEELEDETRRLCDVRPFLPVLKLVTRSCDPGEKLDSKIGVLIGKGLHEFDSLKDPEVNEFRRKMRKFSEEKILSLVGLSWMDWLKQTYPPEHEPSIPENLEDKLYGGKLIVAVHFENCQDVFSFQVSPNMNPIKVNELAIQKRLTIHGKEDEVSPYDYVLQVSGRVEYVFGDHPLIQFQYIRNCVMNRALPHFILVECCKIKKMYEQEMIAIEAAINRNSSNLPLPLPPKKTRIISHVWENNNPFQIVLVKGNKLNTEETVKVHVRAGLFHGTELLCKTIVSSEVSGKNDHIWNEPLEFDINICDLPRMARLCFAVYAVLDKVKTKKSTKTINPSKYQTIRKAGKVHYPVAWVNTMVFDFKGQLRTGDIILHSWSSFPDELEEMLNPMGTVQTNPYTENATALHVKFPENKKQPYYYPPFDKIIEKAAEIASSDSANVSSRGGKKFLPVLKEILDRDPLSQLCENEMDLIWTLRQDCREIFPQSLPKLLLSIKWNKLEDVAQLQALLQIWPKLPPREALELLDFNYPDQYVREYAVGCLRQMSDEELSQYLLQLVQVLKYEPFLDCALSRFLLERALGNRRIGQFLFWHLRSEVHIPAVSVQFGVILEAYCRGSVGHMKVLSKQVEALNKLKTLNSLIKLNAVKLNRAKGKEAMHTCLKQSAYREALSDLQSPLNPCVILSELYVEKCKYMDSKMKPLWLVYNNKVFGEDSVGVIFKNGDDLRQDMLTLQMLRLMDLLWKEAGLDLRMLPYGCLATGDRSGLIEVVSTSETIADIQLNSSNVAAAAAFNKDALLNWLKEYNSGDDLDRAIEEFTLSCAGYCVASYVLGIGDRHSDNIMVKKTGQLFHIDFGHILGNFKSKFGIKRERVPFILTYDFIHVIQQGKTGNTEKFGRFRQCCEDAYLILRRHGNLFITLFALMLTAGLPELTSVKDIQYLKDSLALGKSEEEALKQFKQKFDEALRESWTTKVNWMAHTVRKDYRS
T5 sequence (P27986 whole entry partner): as the sequence (P27986 whole entry partner) above
Protocol: as §1, §2, §3, §4, §5, §6, §7

PI3K delta (PI3Kd) = target: T6, PI3K delta (PI3Kd) (Homo sapiens, UniProt O00329); experiment: kinobeads assay, PI3K delta; assay type: binding; settings: Jurkat cell lysate, read-out: Inhibition values (IC50) PI3Kd
T6 construct: Jurkat cells were homogenized in a Potter S homogenizer in lysis buffer; endogenous in cells; host or cells: Jurkat, clone E6-1 (ATCC TIB-152) lysate
T6 sequence (O00329 whole entry): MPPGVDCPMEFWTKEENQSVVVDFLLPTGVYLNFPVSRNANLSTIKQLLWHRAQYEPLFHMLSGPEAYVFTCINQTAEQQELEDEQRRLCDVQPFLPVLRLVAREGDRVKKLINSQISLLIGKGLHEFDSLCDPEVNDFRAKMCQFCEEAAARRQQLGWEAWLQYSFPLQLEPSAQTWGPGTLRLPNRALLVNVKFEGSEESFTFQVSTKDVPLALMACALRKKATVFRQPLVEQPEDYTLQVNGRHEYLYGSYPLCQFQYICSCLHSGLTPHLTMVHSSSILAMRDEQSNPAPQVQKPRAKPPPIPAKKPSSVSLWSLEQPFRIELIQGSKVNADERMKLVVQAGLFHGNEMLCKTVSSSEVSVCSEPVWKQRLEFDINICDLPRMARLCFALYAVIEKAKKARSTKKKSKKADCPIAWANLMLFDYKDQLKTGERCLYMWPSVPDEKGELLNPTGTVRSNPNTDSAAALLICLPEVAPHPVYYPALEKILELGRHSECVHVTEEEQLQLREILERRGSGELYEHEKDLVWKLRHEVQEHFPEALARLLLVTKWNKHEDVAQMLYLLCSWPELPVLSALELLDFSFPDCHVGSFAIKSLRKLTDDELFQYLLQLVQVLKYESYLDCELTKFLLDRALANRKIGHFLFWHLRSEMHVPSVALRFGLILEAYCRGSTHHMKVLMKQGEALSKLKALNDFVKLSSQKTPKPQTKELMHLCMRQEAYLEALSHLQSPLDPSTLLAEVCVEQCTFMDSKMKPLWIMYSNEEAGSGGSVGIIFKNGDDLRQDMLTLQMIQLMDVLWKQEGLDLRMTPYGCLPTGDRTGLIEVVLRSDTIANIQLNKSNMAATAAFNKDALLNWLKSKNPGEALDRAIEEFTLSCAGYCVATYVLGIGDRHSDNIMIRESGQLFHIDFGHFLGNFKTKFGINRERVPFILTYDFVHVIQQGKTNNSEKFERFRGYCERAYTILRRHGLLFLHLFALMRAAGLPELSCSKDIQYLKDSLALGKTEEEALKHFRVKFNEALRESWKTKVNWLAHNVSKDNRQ
T6 sequence (P27986 whole entry partner): as the sequence (P27986 whole entry partner) above
Protocol: as §1, §2, §3, §4, §5, §6, §7

| IC50 [1] [µM] | IC50 (mTOR) [nM] | IC50 [2] [nM] | IC50 (PI3K alpha (PI3Kα)) [µM] | IC50 (PI3K gamma (PI3Kg)) [µM] | IC50 (PI3K beta (PI3Kb)) [µM] | IC50 (PI3K delta (PI3Kd)) [µM] | SMILES |
| --- | --- | --- | --- | --- | --- | --- | --- |
| > 10 | 100 to 1000 | < 100 | > 10 |  |  |  | CNC(=O)Nc1ccc(-c2nc(-c3cc(F)ccc3S(C)(=O)=O)nc(N3CCOC[C@@H]3C)n2)cc1 [Example 2, (S)-1-(4-(4-(5-fluoro-2-(methylsulfonyl)phenyl)-6-(3-methylmorpholino)-1,3,5-triazin-2-yl)phenyl)-3-methylurea] |
| > 10 | 1000 to 10000 |  | > 10 | > 10 | > 10 | > 10 | CS(=O)(=O)c1ccccc1-c1nc(-c2ccc(NC(=O)NC3CC3)cc2)nc(N2CCOCC2CO)n1 (centres unmarked) [Example 23, 1-cyclopropyl-3-(4-(4-(3-(hydroxymethyl)morpholino)-6-(2-(methylsulfonyl)phenyl)-1,3,5-triazin-2-yl)phenyl)urea] |
| > 10 | 1000 to 10000 |  | > 10 | > 10 | > 10 | > 10 | C[C@H]1COCCN1c1nc(-c2ccc(NC(=O)NC3CCCCC3)cc2)nc(-c2ccccc2S(C)(=O)=O)n1 [Example 28, (S)-1-cyclohexyl-3-(4-(4-(3-methylmorpholino)-6-(2-(methylsulfonyl)phenyl)-1,3,5-triazin-2-yl)phenyl)urea] |
| > 10 | 1000 to 10000 |  | > 10 | > 10 | > 10 | > 10 | C[C@H]1COCCN1c1nc(-c2ccc(NC(=O)NCC(C)(C)C)cc2)nc(-c2ccccc2S(C)(=O)=O)n1 [Example 30, (S)-1-(4-(4-(3-methylmorpholino)-6-(2-(methylsulfonyl)phenyl)-1,3,5-triazin-2-yl)phenyl)-3-neopentylurea] |
|  | 1000 to 10000 |  | > 10 |  |  |  | C[C@H]1COCCN1c1nc(-c2ccc(NC(=O)NCCC(N)C(F)(F)F)cc2)nc(-c2ccccc2S(C)(=O)=O)n1 (stereo partly drawn) [Example 37, 1-(3-amino-4,4,4-trifluorobutyl)-3-(4-(4-((S)-3-methylmorpholino)-6-(2-(methylsulfonyl)phenyl)-1,3,5-triazin-2-yl)phenyl)urea] |
|  | 1000 to 10000 | 100 to 1000 | > 10 |  |  |  | CS(=O)(=O)c1ccc(F)cc1-c1nc(-c2ccc(NC(=O)NC3CC3)cc2)nc(N2CC3CCC(C2)O3)n1 [Example 39, 1-(4-(4-(8-oxa-3-azabicyclo[3.2.1]octan-3-yl)-6-(5-fluoro-2-(methylsulfonyl)phenyl)-1,3,5-triazin-2-yl)phenyl)-3-cyclopropylurea] |
| > 10 | < 100 | < 100 | 1 to 10 |  |  |  | CCNC(=O)Nc1ccc(-c2nc(-c3cccnc3S(C)(=O)=O)nc(N3CCOC[C@@H]3C)n2)cc1 [Example 40, (S)-1-ethyl-3-(4-(4-(3-methylmorpholino)-6-(2-(methylsulfonyl)pyridin-3-yl)-1,3,5-triazin-2-yl)phenyl)ure] |
| > 10 | < 100 | < 100 | 1 to 10 |  |  |  | CNC(=O)Nc1ccc(-c2nc(-c3cccnc3S(C)(=O)=O)nc(N3CCOC[C@@H]3C)n2)cc1 [Example 41, (S)-1-methyl-3-(4-(4-(3-methylmorpholino)-6-(2-(methylsulfonyl)pyridin-3-yl)-1,3,5-triazin-2-yl)phenyl)urea] |
| > 10 | 100 to 1000 | < 100 | > 10 |  |  |  | CCNC(=O)Nc1ccc(-c2nc(-c3cc(F)ccc3S(C)(=O)=O)nc(N3CCOC[C@@H]3C)n2)cc1 [Example 42, (S)-1-ethyl-3-(4-(4-(5-fluoro-2-(methylsulfonyl)phenyl)-6-(3-methylmorpholino)-1,3,5-triazin-2-yl)phenyl)urea] |
| > 10 | 100 to 1000 | < 100 | > 10 |  |  |  | C[C@H]1COCCN1c1nc(-c2ccc(NC(=O)NCC(F)F)cc2)nc(-c2cc(F)ccc2S(C)(=O)=O)n1 [Example 43, (S)-1-(2,2-difluoroethyl)-3-(4-(4-(5-fluoro-2-(methylsulfonyl)phenyl)-6-(3-methylmorpholino)-1,3,5-triazin-2-yl)phenyl)urea] |
| > 10 | 100 to 1000 | < 100 | > 10 |  |  |  | C[C@H]1COCCN1c1nc(-c2ccc(NC(=O)NCCF)cc2)nc(-c2cc(F)ccc2S(C)(=O)=O)n1 [Example 44, (S)-1-(4-(4-(5-fluoro-2-(methylsulfonyl)phenyl)-6-(3-methylmorpholino)-1,3,5-triazin-2-yl)phenyl)-3-(2-fluoroethyl)urea] |
